According to ChEMBL document CHEMBL1909046, “DrugMatrix in vitro pharmacology data”:

Key:
[1] = DRUGMATRIX: GABAA, Chloride Channel, TBOB radioligand binding (ligand: [3H] TBOB); format: cell membranes, Rattus norvegicus, Wistar, Cerebral cortex, Membrane; details: Not Active = under 50% inhibition at 10 µM
[2] = molecular target: T1, Vasoactive intestinal polypeptide receptor 1 (Homo sapiens, UniProt P32241); format: cell membranes, Membrane; details: ht-29; note: in other assays of this panel Not Active means under 50% inhibition at 10 µM
T1 sequence (P32241 whole entry): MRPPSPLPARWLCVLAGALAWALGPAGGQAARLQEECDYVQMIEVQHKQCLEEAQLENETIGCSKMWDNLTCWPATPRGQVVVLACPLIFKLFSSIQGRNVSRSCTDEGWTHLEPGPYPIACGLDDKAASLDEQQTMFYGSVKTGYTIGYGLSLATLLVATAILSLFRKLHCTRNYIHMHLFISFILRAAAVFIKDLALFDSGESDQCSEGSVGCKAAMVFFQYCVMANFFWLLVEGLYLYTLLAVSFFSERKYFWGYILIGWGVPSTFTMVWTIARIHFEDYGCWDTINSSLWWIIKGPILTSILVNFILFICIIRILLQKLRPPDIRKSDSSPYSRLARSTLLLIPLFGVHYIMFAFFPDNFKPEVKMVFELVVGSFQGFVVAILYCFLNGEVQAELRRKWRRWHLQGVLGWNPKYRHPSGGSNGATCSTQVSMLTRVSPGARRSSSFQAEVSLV

[3] = DRUGMATRIX: Sigma2 radioligand binding (ligand: [3H] Ifenprodil); format: cell membranes, Rattus norvegicus, Wistar, Brain, Membrane; details: Not Active = under 50% inhibition at 10 µM
[4] = DRUGMATRIX: Serotonin (5-Hydroxytryptamine) 5-HT3 radioligand binding (ligand: [3H] GR-65630); format: cell membranes, Membrane; details: hek293; Not Active = under 50% inhibition at 10 µM
Adenosine receptor A1 = molecular target: T2, Adenosine receptor A1 (Homo sapiens, UniProt P30542); format: cell membranes, CHO, Membrane; details: cho;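 note: radioligand binding assay at the adenosine A1 receptor, with DPCPX serving as the labelled ligand; in other assays of this panel Not Active means under 50% inhibition at 10 µM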
T2 sequence (P30542 whole entry): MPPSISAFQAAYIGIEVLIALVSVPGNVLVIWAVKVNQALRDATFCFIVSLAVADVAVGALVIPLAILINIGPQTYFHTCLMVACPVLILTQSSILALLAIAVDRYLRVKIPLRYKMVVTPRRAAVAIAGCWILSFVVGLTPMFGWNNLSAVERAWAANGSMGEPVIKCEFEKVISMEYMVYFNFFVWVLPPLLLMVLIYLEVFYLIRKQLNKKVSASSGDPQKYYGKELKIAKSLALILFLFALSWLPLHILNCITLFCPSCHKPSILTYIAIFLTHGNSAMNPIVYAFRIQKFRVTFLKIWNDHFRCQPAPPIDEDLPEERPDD

[5] = DRUGMATRIX: Glutamate, Kainate radioligand binding (ligand: [3H] Kainic acid); format: cell membranes, Rattus norvegicus, Wistar, Brain, Membrane; details: Not Active = under 50% inhibition at 10 µM
Adenosine receptor A3 = molecular target: T3, Adenosine receptor A3 (Homo sapiens, UniProt P0DMS8); format: cell membranes, CHO-K1, Membrane; details: cho-k1;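 note: radioligand binding assay with AB-MECA serving as the labeled ligand; in other assays of this panel Not Active means under 50% inhibition at 10 µM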
T3 sequence (P0DMS8 whole entry): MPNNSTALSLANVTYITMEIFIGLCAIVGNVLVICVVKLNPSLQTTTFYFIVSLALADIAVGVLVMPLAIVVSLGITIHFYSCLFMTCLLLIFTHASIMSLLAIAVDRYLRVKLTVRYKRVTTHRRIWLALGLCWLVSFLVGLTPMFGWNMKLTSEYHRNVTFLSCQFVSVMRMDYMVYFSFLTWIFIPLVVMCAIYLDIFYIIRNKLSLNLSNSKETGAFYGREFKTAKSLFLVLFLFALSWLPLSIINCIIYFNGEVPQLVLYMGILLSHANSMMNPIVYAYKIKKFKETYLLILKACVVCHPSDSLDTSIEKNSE

CC(C)C(Br)C(=O)NC(N)=O (stereo unspecified) [BROMISOVALUM]
Not Active: IC50 [1] | Ki [1] | IC50 [2] | IC50 [3] | Ki [3] | IC50 [4] | Ki [4] | IC50 (Adenosine receptor A1) | IC50 [5] | Ki [5] | IC50 (Adenosine receptor A3)

C[C@H]1c2cccc(O)c2C(=O)C2=C(O)[C@]3(O)C(=O)C(C(N)=O)=C(O)[C@@H](N(C)C)[C@@H]3[C@@H](O)[C@@H]21.O [DOXYCYCLINE]
Not Active: IC50 [1] | Ki [1] | IC50 [2] | IC50 [3] | Ki [3] | IC50 [4] | Ki [4] | IC50 (Adenosine receptor A1) | IC50 [5] | Ki [5] | IC50 (Adenosine receptor A3)

CNCCCN1c2ccccc2CCc2ccccc21 [DESIPRAMINE]
Not Active: IC50 [1] | Ki [1] | IC50 [2] | IC50 [3] | Ki [3] | IC50 [4] | Ki [4] | IC50 (Adenosine receptor A1) | IC50 [5] | Ki [5] | IC50 (Adenosine receptor A3)

C[C@H](CS)C(=O)N1CCC[C@H]1C(=O)O [CAPTOPRIL]
Not Active: IC50 [1] | Ki [1] | IC50 [2] | IC50 [3] | Ki [3] | IC50 [4] | Ki [4] | IC50 (Adenosine receptor A1) | IC50 [5] | Ki [5] | IC50 (Adenosine receptor A3)

CC(O)CO (stereo unspecified) [PROPYLENE GLYCOL]
Not Active: IC50 [1] | Ki [1] | IC50 [2] | IC50 [3] | Ki [3] | IC50 [4] | Ki [4] | IC50 (Adenosine receptor A1) | IC50 [5] | Ki [5] | IC50 (Adenosine receptor A3)

Cc1c(O)c(=O)ccn1C [DEFERIPRONE]
Not Active: IC50 [1] | Ki [1] | IC50 [2] | IC50 [3] | Ki [3] | IC50 [4] | Ki [4] | IC50 (Adenosine receptor A1) | IC50 [5] | Ki [5] | IC50 (Adenosine receptor A3)

CC(C)[C@@]1(NC(=O)[C@@H]2C[C@@H]3c4cccc5[nH]cc(c45)C[C@H]3N(C)C2)O[C@@]2(O)[C@@H]3CCCN3C(=O)[C@H](Cc3ccccc3)N2C1=O.CS(=O)(=O)O [DIHYDROERGOCRISTINE MESYLATE]
Not Active: IC50 [1] | Ki [1] | IC50 [2] | IC50 [3] | Ki [3] | IC50 [4] | Ki [4] | IC50 (Adenosine receptor A1) | IC50 [5] | Ki [5] | IC50 (Adenosine receptor A3)

C1CCC(C(CC2CCCCN2)C2CCCCC2)CC1 (stereo unspecified) [PERHEXILINE]
Not Active: IC50 [1] | Ki [1] | IC50 [2] | IC50 [3] | Ki [3] | IC50 [4] | Ki [4] | IC50 (Adenosine receptor A1) | IC50 [5] | Ki [5] | IC50 (Adenosine receptor A3)

c1ccc2c(c1)c1cccc3ccc4cccc2c4c31 [BENZO[E]PYRENE]
Not Active: IC50 [1] | Ki [1] | IC50 [2] | IC50 [3] | Ki [3] | IC50 [4] | Ki [4] | IC50 (Adenosine receptor A1) | IC50 [5] | Ki [5] | IC50 (Adenosine receptor A3)

C[C@]12CC[C@@H]3c4ccc(O)cc4CC[C@H]3[C@@H]1CCC2=O [ESTRONE]
Not Active: IC50 [1] | Ki [1] | IC50 [2] | IC50 [3] | Ki [3] | IC50 [4] | Ki [4] | IC50 (Adenosine receptor A1) | IC50 [5] | Ki [5] | IC50 (Adenosine receptor A3)

CNCCc1ccccn1 [BETAHISTINE]
Not Active: IC50 [1] | Ki [1] | IC50 [2] | IC50 [3] | Ki [3] | IC50 [4] | Ki [4] | IC50 (Adenosine receptor A1) | IC50 [5] | Ki [5] | IC50 (Adenosine receptor A3)
